# Laboratory results reported in US9394555B2, “Compositions comprising a polypeptide having cellulolytic enhancing activity and a dioxy compound and uses thereof” (priority 2010, dated 2016).
# Legend:
# [1] = test system: T. terrestris GH61E polypeptide; assay: Microcrystalline cellulose conversion assay I (Examples 8, 9) with T. terrestris GH61E polypeptide; type: biochemical, Thielavia terrestris; conditions: dioxy compound 0.3% w/w + T. terrestris GH61E polypeptide (10 mg/g) + endoglucanase II + beta-glucosidase (5 mg/g each), 96 hours
# Protocol: (§1) A 5% microcrystalline cellulose slurry was prepared by addition of 2.5 g of AVICEL®PH101 (Sigma-Aldrich, St. Louis, Mo., USA) to a graduated 50 ml screw-cap conical tube followed by 15 ml of 1 M sodium acetate pH 5 and 1 ml of 100 mM MnSO4 and approximately 20 ml of deionizer water. Each conical tube was then mixed thoroughly by shaking/vortexing, and adjusted to 50 ml total with deionized water and mixed again. Contents of the tube were then quickly transferred to a 100 ml beaker and stirred rapidly with a magnetic stirrer. Five hundred μl aliquots of the 5% AVICEL® slurry were pipetted into wells of a 2.0 ml 96-deepwell plate (Axygen, Union City, Calif., USA) using a 1000 μl micropipette with a wide aperture tip (end of tip cut off about 2 mm from the base). Three hundred μl of either deionized water or a 1% dioxy compound solution (dissolved in deionized water) was added to each well.
# (§2) The dioxy compounds assayed include caffeic acid (Sigma-Aldrich, St. Louis, Mo., USA), dichlorophenolindophenol (DCPIP; Sigma-Aldrich, St. Louis, Mo., USA), ethyl gallate (Sigma-Aldrich, St. Louis, Mo., USA), gallic acid (Sigma-Aldrich, St. Louis, Mo., USA), 3,4-dihydroxybenzoic acid (Sigma-Aldrich, St. Louis, Mo., USA), pyrocatechol (Sigma-Aldrich, St. Louis, Mo., USA), pyrogallol (Sigma-Aldrich, St. Louis, Mo., USA), sinapinic acid (3,5 dimethoxy-4-hydroxy cinnamic acid; Apin Chemicals LTD, Abingdon, UK), and tannic acid (Sigma-Aldrich, St. Louis, Mo., USA).
# (§3) Enzyme mixtures were prepared and then added simultaneously to all wells in a volume of 200 μl, for a total of 1 ml in each reaction. […] All experiments reported were performed in triplicate.
# (§4) After approximately 4 days, the deep-well plate was removed from the incubator and chilled overnight to 4° C. The plate was then mixed well by inversion and briefly centrifuged at 52×g in a SORVALL® RT7 centrifuge (Thermo Fisher Scientific, Waltham, Mass., USA) for 10 seconds. Samples were then mixed by pipetting, and 200 μl from each well were transferred to a MULTISCREEN® HV centrifuge filter plate assembly (Millipore, Bedford, Mass., USA). The centrifuge filter plate assembly was centrifuged at 2000 rpm in a SORVALL® RT7 centrifuge for 20 minutes. […] Sugars were detected using a refractive index detector (Agilent Technologies, Inc., Santa Clara, Calif., USA) with quantification by integration compared to purified sugar standards.
# (§5) In this assay only glucose was measured since beta-glucosidase was at high levels in all samples but the controls.
# (§6) A limit digest was performed to determine the total concentration accessible glucose equivalents using 100 mg of T. reesei cellulase (CELLIC™ CTec, Novozymes A/S, Bagsvaerd, Denmark) per gram cellulose, Triplicate data points were averaged and standard deviation was calculated.
# [2] = target: T. aurantiacus GH61A polypeptide (Thermoascus aurantiacus, UniProt G3XAP7, N13Y); assay: Microcrystalline cellulose conversion assay II (Examples 10, 11), T. reesei CEL7A cellobiohydrolase I + A. oryzae CEL3A beta-glucosidase; type: biochemical; conditions: 72 hours, 50° C.; for conversion (hydrolysis) of the microcrystalline cellulose: dioxy compound 0.1% w/w alone, no enzymes
# Sequence of T. aurantiacus GH61A polypeptide (G3XAP7 whole entry N13Y): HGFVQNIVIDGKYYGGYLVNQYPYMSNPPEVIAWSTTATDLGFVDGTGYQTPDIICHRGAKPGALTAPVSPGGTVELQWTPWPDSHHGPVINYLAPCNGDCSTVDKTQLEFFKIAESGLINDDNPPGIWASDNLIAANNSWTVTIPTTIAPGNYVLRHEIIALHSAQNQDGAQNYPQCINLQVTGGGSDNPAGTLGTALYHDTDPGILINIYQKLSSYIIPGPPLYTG
# Protocol: A 5% microcrystalline cellulose slurry was prepared by addition of 2.5 g of AVICEL® PH101 to a graduated 50 ml screw-cap conical tube followed by approximately 40 ml of deionized water. Each conical tube was then mixed thoroughly by shaking/vortexing, and adjusted to 50 ml total with deionized water and mixed again. For samples containing dioxy compounds, a similar slurry was prepared by the addition of 100 mg of solid dioxy compound and 2.5 g of AVICEL® PH101 to a graduated 50 ml screw-cap conical tube followed by approximately 40 ml of deionized water. Each conical tube was then mixed thoroughly by shaking/vortexing, and adjusted to 50 ml total with deionized water and mixed again.
# The dioxy compounds assayed include caffeic acid, dichlorophenolindophenol (DCPIP), ethyl gallate, gallic acid, 3,4-dihydroxybenzoic acid, pyrocatechol, pyrogallol, sinapinic acid (3,5 dimethoxy-4-hydroxy cinnamic acid), and tannic acid.
# In all cases, the contents of the tube (5% microcrystalline cellulose slurry with or without 0.2% dioxy compound) were then quickly transferred to a 100 ml beaker and stirred rapidly with a magnetic stirrer. Five hundred μl aliquots of the 5% AVICEL® slurry were pipetted into wells of a 2.0 ml 96-deepwell plate (Axygen, Union City, Calif.) using a 1000 μl micropipette with a wide aperture tip (end of tip cut off about 2 mm from the base). One hundred μl of deionized water and 300 μl of 3.33 mM MnSO4-500 mM sodium acetate pH 5 were then added to each well. Enzyme mixtures were prepared and then added simultaneously to all wells in a volume of 100 μl, for a total of 1 ml in each reaction. […] All experiments reported were performed in triplicate.
# as §4, with “Primary analysis of the hydrolysis reactions was performed using an AGILENT® 1100 HPLC with CHEMSTATION® software equipped with an AMINEX™ HPX-87H column. After” for “After”, “centrifuge” for “centrifuge (Thermo Fisher Scientific, Waltham, Mass., USA)”, “assembly.” for “assembly (Millipore, Bedford, Mass., USA).”, “detector” for “detector (Agilent Technologies, Inc., Santa Clara, Calif., USA)”
# All HPLC data processing was performed using MICROSOFT EXCEL™ software. […] In this assay only glucose was measured since beta-glucosidase was at high levels in all samples but the controls. The degree of cellulose conversion was calculated using Equation 1. Triplicate data points were averaged and standard deviation was calculated.
# The microcrystalline cellulose hydrolysis assay was performed as described in Example 10.
# Data were collected and analyzed, as described in Example 10, after 72 hours of incubation at 50° C.
# [3] = test system: T. aurantiacus CEL5A endoglucanase II and P. brasilianum CEL3A beta-glucosidase; assay: Microcrystalline cellulose conversion assay I (Examples 8, 9) without GH61 polypeptide; type: biochemical, Thermoascus aurantiacus; Penicillium brasilianum; conditions: dioxy compound 0.3% w/w + endoglucanase II + beta-glucosidase (5 mg/g each), no GH61; 96 hours, at either 50° C. or 60° C.
# Protocol: as §1, §2, §3, §4, §5, §6
SMILES,conversion of microcrystalline cellulose ([1]; 50° C.),conversion of microcrystalline cellulose ([1]; 60° C.),conversion (hydrolysis) of the microcrystalline cellulose [2],change in conversion of microcrystalline cellulose compared to the enzymes in the absence of the dioxy compound [3],"conversion of the microcrystalline cellulose ([2]; dioxy compound 0.1% w/w + cellobiohydrolase I + beta-glucosidase (5 mg/g each), no GH61)"
O=C(O)/C=C/c1ccc(O)c(O)c1 [caffeic acid],4.4±0.1%,7.0±0.1%,no significant hydrolysis,no significant change,
CCOC(=O)c1cc(O)c(O)c(O)c1 [ethyl gallate],6.0±0.3%,6.2±0.1%,no significant hydrolysis,no significant change,
Oc1ccccc1O [pyrocatechol],7.4±0.2%,7.9±0.1%,no significant hydrolysis,no significant change,no significant change
Oc1cccc(O)c1O [pyrogallol],7.1±0.5%,9.5±0.1%,no significant hydrolysis,no significant change,
O=C(OC[C@H]1O[C@@H](OC(=O)c2cc(O)c(O)c(OC(=O)c3cc(O)c(O)c(O)c3)c2)[C@H](OC(=O)c2cc(O)c(O)c(OC(=O)c3cc(O)c(O)c(O)c3)c2)[C@@H](OC(=O)c2cc(O)c(O)c(OC(=O)c3cc(O)c(O)c(O)c3)c2)[C@@H]1OC(=O)c1cc(O)c(O)c(OC(=O)c2cc(O)c(O)c(O)c2)c1)c1cc(O)c(O)c(OC(=O)c2cc(O)c(O)c(O)c2)c1 [tannic acid],5.7±0.1%,6.0±0.2%,,no significant change,
